PubChem BioAssay (NCI)
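Five compound concentrations were applied to cells in 96-well plates for 48 hours; endpoints were derived by simple linear interpolation of the resulting dose-response curve. GI50 marks 50% less growth. The concentration for full growth arrest is given as TGI.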

Tests used:
Test in all cases: NCI anticancer screen, dose series, 48 h
[1] = system: 786-0 renal
[2] = system: A498 renal
[3] = system: A549 NSCLC
[4] = system: ACHN renal
[5] = system: BT-549 breast
[6] = system: CAKI-1 renal
[7] = system: CCRF-CEM leukemia
[8] = system: COLO 205 colon
[9] = system: DU-145 prostate
[10] = system: EKVX NSCLC
[11] = system: HCC-2998 colon
[12] = system: HCT-116 colon
[13] = system: HCT-15 colon
[14] = system: HL-60(TB) leukemia
[15] = system: HOP-62 NSCLC
[16] = system: HOP-92 NSCLC
[17] = system: HS 578T breast
[18] = system: HT29 colon
[19] = system: IGROV1 ovarian
[20] = system: K-562 leukemia
[21] = system: KM12 colon
[22] = system: LOX IMVI melanoma
[23] = system: M14 melanoma
[24] = system: MALME-3M melanoma
[25] = system: MCF7 breast
[26] = system: MDA-MB-231 breast
[27] = system: MDA-MB-435
[28] = system: MOLT-4 leukemia
[29] = system: NCI-H226 lung
[30] = system: NCI-H23 lung
[31] = system: NCI-H460 lung
[32] = system: NCI-H522 lung
[33] = system: NCI/ADR-RES ovarian
[34] = system: OVCAR-3 ovarian
[35] = system: OVCAR-4 ovarian
[36] = system: OVCAR-5 ovarian
[37] = system: OVCAR-8 ovarian
[38] = system: PC-3 prostate
[39] = system: RPMI-8226 leukemia
[40] = system: RXF 393 renal
[41] = system: SF-268 CNS
[42] = system: SF-295 CNS
[43] = system: SF-539 CNS
[44] = system: SK-MEL-2 melanoma
[45] = system: SK-MEL-28 melanoma
[46] = system: SK-MEL-5 melanoma
[47] = system: SK-OV-3 ovarian
[48] = system: SN12C renal
[49] = system: SNB-19 CNS
[50] = system: SNB-75 CNS
[51] = system: SW-620 colon
[52] = system: T-47D breast
[53] = system: TK-10 renal
[54] = system: U251 CNS
[55] = system: UACC-257 melanoma
[56] = system: UACC-62 melanoma
[57] = system: UO-31 renal

CCn1c2ccccc2c2cc(/C=C(/C#N)C(N)=S)ccc21
GI50 [1]: 16.1 µM | TGI [1]: 39.4 µM | GI50 [2]: 0.026 µM | TGI [2]: 0.115 µM | GI50 [3]: 17.5 µM | TGI [3]: > 87.4 µM | GI50 [4]: 19.6 µM | TGI [4]: 64 µM | GI50 [5]: 18.6 µM | TGI [5]: 36.6 µM | GI50 [6]: 1.12 µM | TGI [6]: > 35.4 µM | GI50 [7]: 23.4 µM | TGI [7]: > 100 µM | GI50 [8]: 13.2 µM | TGI [8]: > 45.7 µM | GI50 [9]: 16.1 µM | TGI [9]: 63.6 µM | GI50 [10]: 17.7 µM | TGI [10]: > 58.4 µM | GI50 [11]: 2.88 µM | TGI [11]: 9 µM | GI50 [12]: 5.79 µM | TGI [12]: 20.9 µM | GI50 [13]: 18.7 µM | TGI [13]: 51.6 µM | GI50 [14]: 74.4 µM | TGI [14]: > 100 µM | GI50 [15]: 1.21 µM | TGI [15]: 17.7 µM | GI50 [16]: 14.6 µM | TGI [16]: 46.9 µM | GI50 [17]: 2.21 µM | TGI [17]: 9.29 µM | GI50 [18]: 10.9 µM | TGI [18]: > 42.7 µM | GI50 [19]: 0.619 µM | TGI [19]: 23.2 µM | GI50 [20]: 12.8 µM | TGI [20]: > 100 µM | GI50 [21]: 15.2 µM | TGI [21]: 38.5 µM | GI50 [22]: 13 µM | TGI [22]: 26.1 µM | GI50 [23]: 18.2 µM | TGI [23]: 38.8 µM | GI50 [24]: 6.19 µM | TGI [24]: 48.5 µM | GI50 [25]: 0.271 µM | TGI [25]: 17.8 µM | GI50 [26]: 12.1 µM | TGI [26]: 30.8 µM | GI50 [27]: 6.06 µM | TGI [27]: 29.6 µM | GI50 [28]: 12.5 µM | TGI [28]: 58.6 µM | TGI [29]: 0.0236 µM | GI50 [30]: 14.8 µM | TGI [30]: 35.4 µM | GI50 [31]: 0.443 µM | TGI [31]: 12.2 µM | GI50 [32]: 26.9 µM | TGI [32]: > 68.4 µM | GI50 [33]: 18 µM | TGI [33]: 38.5 µM | GI50 [34]: 1.73 µM | TGI [34]: 18.2 µM | GI50 [35]: 1.43 µM | TGI [35]: 9.92 µM | GI50 [36]: 0.0581 µM | TGI [36]: 0.57 µM | GI50 [37]: 20.5 µM | TGI [37]: 56.4 µM | GI50 [38]: 18.3 µM | TGI [38]: > 59.4 µM | GI50 [39]: 35.4 µM | TGI [39]: > 100 µM | GI50 [40]: 16.5 µM | TGI [40]: 39 µM | GI50 [41]: 16.3 µM | TGI [41]: 40.6 µM | GI50 [42]: 4.64 µM | TGI [42]: 24.2 µM | GI50 [43]: 14.2 µM | TGI [43]: 27.4 µM | GI50 [44]: 31.3 µM | TGI [44]: > 100 µM | GI50 [45]: 17.7 µM | TGI [45]: 47.2 µM | GI50 [46]: 7.26 µM | TGI [46]: 20.2 µM | GI50 [47]: 36.7 µM | TGI [47]: > 62.1 µM | GI50 [48]: 11.8 µM | TGI [48]: 29.9 µM | GI50 [49]: 35.2 µM | TGI [49]: > 75.6 µM | GI50 [50]: 18.8 µM | TGI [50]: 46.1 µM | GI50 [51]: 9.06 µM | TGI [51]: 25.1 µM | GI50 [52]: 4.84 µM | GI50 [53]: 0.216 µM | TGI [53]: 1.82 µM | GI50 [54]: 4.85 µM | TGI [54]: 23.5 µM | GI50 [55]: 3.11 µM | TGI [55]: > 21.4 µM | GI50 [56]: 0.219 µM | TGI [56]: 1.51 µM | GI50 [57]: 20.4 µM | TGI [57]: > 60.6 µM
